Source: patent US20260191793A1, “HBV SPECIFIC EXOSOMES AND USES THEREOF” (priority 2022, published 2026)

System: HBV replication in HepG2/2.2.15 cells
Test: Antiviral efficiency of synthetic gRNA/Cas9 RNPs in HepG2/2.2.15 cells (HBsAg/HBeAg ELISA, HBV mRNA and HBV DNA real-time PCR)
Format: cell-based, Hepatitis B virus (HBV)
Design: reduction in HBsAg expression / reduction of HBV mRNA expression: concentration or dose not given beside the values
Conditions: for reduction of HBV mRNA expression: HepG2/2.2.15 cells, real-time PCR, vs gRNAc
Description: The HepG2.2.15 Human Hepatoblastoma cell line (Cat #SCC249, MilliporeSigma, Burlington, MA) is a traditional HBV cellular model that is widely used for studying HBV infection and drug development. HepG2.2.15 cells display constitutive HBV RNA transcription and DNA replication, but a lesser detection of cccDNA by Southern blot and PCR detection. The HepG2/2.2.15 cells were cultured in DMEM (Cat #MT10013CV, Fisher Scientific, Waltham, MA) supplemented with 10% Fetal bovine serum, penicillin, and streptomycin (50 ug/ml each; Fisher Scientific) and maintained at 37° C. and 5% CO2 atmosphere. The Amaxa Cell Line Nucleofector Kit V (Lonza VCA-1003) was used to deliver gRNA/Cas9 into HepG2/2.2.15 cells stably expressing HBV. For each transfection, 160 μM gRNA and 160 μM tracrRNA were first incubated at 37° C. for 30 minutes, followed by adding 80 μM Cas9 protein and incubating at 37° C. for 15 minutes. Approximately 40 μM of the gRNA/Cas9 complex was transfected into HepG2/2.2.15 cells (5×10^5) following the manufacturer's instructions. After 72 hours, the culture supernatants were harvested to measure HBV antigens by ELISA, and the cell pellets were used to determine HBV DNA or mRNA levels by real-time-PCR.
The levels of HBsAg and HBeAg in the supernatants of cell cultures were determined by ELISA (Cat #KA0286 and NBP2-600029, Novus Biologicals, Littleton, CO) according to the manufacturer's protocol. The optical density of antigen levels was measured at 450 nm using a microplate spectrophotometer. The samples were run in triplicate, and the experiments were repeated at least three times.
Total RNA was extracted from the cell pellets by the RNeasy Mini kit (Cat #74104, QIAGEN, Germantown, MD), and 1 μg RNA was converted to cDNA using the Applied Biosystems High-Capacity cDNA Reverse Transcription Kit (Cat #43-688-14, ThermoFisher, Waltham, MA). Quantitative real-time PCR (real-time-qPCR) was performed using iTaq Universal SYBR Green Supermix (Cat #1725124, Bio-Rad, Hercules, CA). The PCR primers were: HBV mRNA forward, 5′-[…]-3′ (SEQ ID NO: 52), reverse, 5′-[…]-3′ (SEQ ID NO: 53); HBV pgRNA forward 5′-[…]-3′ (SEQ ID NO: 54), reverse 5′-[…]-3′ (SEQ ID NO: 55); and GAPDH forward 5′-[…]-3′ (SEQ ID NO: 56), reverse 5′-[…]-3′ (SEQ ID NO: 57). The gene expression levels were determined by the […] method and values were normalized to GAPDH expression as an internal control.
Total and protein-free HBV DNAs were extracted from whole cell lysate using the Hirt DNA method according to a previously published protocol. For HBV cccDNA analysis, the protein-free DNA was treated with 10 units of T5 exonuclease (NEB) at 37° C. for 30 min, followed by 95° C. for 5 min, and diluted 4-fold with nuclease-free water. Next, the cccDNA was cleaned with a DNA clean and concentrator kit (ZYMO Research, Irvine, CA) and used for PCR. HBV total DNA and cccDNA were analyzed by real-time PCR using a TaqMan PCR assay. The primers and probe used to amplify HBV total DNA were: HBV total DNA forward: 5′-[…]-3′ (SEQ ID NO: 58), reverse 5′-[…]-3′ (SEQ ID NO: 59), and internal probe: 5′-FAM-[…]-TAMRA-3′ (SEQ ID NO: 60). The primers and probe used to amplify HBV cccDNA (Genotype D, subtype ayw) were: forward: 5′-[…]-3′ (SEQ ID NO: 61), reverse 5′-[…]-3′ (SEQ ID NO: 62), and internal probe 5′-FAM-[…]-TAMRA-3′ (SEQ ID NO: 63). The PCR reactions were performed in 20 μl volumes and contained 2 μl DNA. The PCR conditions were: 95° C. for 10 min, followed by 45 cycles of 95° C. for 15 s and 64° C. for 30 s. The DNA levels were determined by the […] method and values were normalized to the control group.
Because the hepatoma cell line HepG2/2.2.15 is a traditional HBV cellular model used to test the efficacy and cytotoxicity of anti-HBV drugs, the synthetic gRNA/Cas9 RNPs were tested for their antiviral efficiency in HepG2/2.2.15 cells. […]

Sequence | reduction in HBsAg expression (HepG2/2.2.15 supernatant, 3 days after nucleofection, ELISA, vs scrambled gRNAc) | reduction of HBV mRNA expression
GAAGCGAAGTGCACACGGTCNGG (guide GAAGCGAAGUGCACACGGUCNGG; complexed with Cas9 as ribonucleoprotein, chemistry not given here) [gRNA8, tested as synthetic gRNA/Cas9 RNP] | 50% | 
GATTGAGACCTTCGTCTGCGNGG (guide GAUUGAGACCUUCGUCUGCGNGG; complexed with Cas9 as ribonucleoprotein, chemistry not given here) [gRNA1, tested as synthetic gRNA/Cas9 RNP] |  | ~ 50%
GTCGCAGAAGATCTCAATCTNGG (guide GUCGCAGAAGAUCUCAAUCUNGG; complexed with Cas9 as ribonucleoprotein, chemistry not given here) [gRNA3, tested as synthetic gRNA/Cas9 RNP] |  | ~ 50%
